In ChEMBL document CHEMBL1135545, “Conformational memories and the endocannabinoid binding site at the cannabinoid CB1 receptor” (J Med Chem, 2002):
pKi: −log10 of the molar value.

molecular target: Cannabinoid receptor 1 (Homo sapiens, UniProt P21554); assay: Compound was evaluated for its binding affinity towards Cannabinoid receptor 1 [Inactive form(R) of CB1 receptor]
Sequence (P21554 whole entry): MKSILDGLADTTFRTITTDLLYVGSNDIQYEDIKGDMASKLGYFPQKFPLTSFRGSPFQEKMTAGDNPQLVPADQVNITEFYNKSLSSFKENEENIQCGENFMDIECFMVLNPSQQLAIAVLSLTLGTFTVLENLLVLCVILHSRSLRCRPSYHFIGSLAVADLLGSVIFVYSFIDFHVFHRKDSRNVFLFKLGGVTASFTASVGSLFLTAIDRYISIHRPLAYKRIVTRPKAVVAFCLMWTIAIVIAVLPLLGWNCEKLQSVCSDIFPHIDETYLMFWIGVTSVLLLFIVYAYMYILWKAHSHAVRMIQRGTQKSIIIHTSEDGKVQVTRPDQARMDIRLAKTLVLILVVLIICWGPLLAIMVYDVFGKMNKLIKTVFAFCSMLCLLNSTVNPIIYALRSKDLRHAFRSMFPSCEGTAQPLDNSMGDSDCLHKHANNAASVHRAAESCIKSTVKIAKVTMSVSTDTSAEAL

Point of comparison: CCCCC/C=C\C/C=C\C/C=C\C/C=C\CC[C@H](C)C(=O)N[C@@H](C)CO, pKi 6.41. Against it:
- CCCCC/C=C\C/C=C\C/C=C\C/C=C\CC[C@@H](C)C(=O)N[C@H](C)CO — 1.72 log units higher, 8.13
- CCCCC/C=C\C/C=C\CCCCCCCCCC(=O)NCCO — lower, < 5.82
- CCCCC/C=C\C/C=C\C/C=C\C/C=C\CC[C@@H](C)C(=O)N[C@@H](C)CO — 0.22 log units higher, 6.63
- CCCCC/C=C\C/C=C\C/C=C\C/C=C\CCCCCC(=O)NCCO — 1.05 log units higher, 7.46
- CCCCC/C=C\C/C=C\C/C=C\C/C=C\CC[C@H](C)C(=O)N[C@H](C)CO — 0.32 log units higher, 6.73
